# Experimental data from US20150105252A1, “SUBSTITUTED PYRAZOLES AS HERBICIDES” (E I DU PONT DE NEMOURS AND COMPANY, priority 2013, published 2015).
# How the values were obtained:
# ryegrass, Italian = assay: Test C postemergence; assay type: in vivo, Lolium multiflorum; details: for Plant response rating, Ryegrass, Italian / Ryegrass, Italian plant response rating: postemergence; for Plant response rating (scale of 0 to 100 where 0 is no effect and 100 is complete control), Ryegrass, Italian: 31 g ai/ha, visually evaluated after 13 to 15 days; for Ryegrass, Italian plant response rating: scale 0 to 100
# From the text: Seeds of plant species selected from blackgrass (Alopecurus myosuroides), ryegrass, Italian (Italian ryegrass, Lolium multiflorum), wheat (winter wheat, Triticum aestivum), galium (catchweed bedstraw, Galium aparine), corn (Zea mays), crabgrass, large (large crabgrass, Digitaria sanguinalis), foxtail, giant (giant foxtail, Setaria faberii), johnsongrass (Sorghum halepense), lambsquarters (Chenopodium album), morningglory (Ipomoea coccinea), nutsedge, yellow (yellow nutsedge, Cyperus esculentus), pigweed (redroot pigweed, Amaranthus retroflexus), ragweed (common ragweed, Ambrosia elation), soybean (Glycine max), barnyardgrass (Echinochloa crus-galli), oilseed rape (Brassica napus), waterhemp (common waterhemp, Amaranthus rudis), oat, wild (wild oat, Avena fatua), kochia (Kochia scoparia), Surinam grass (Brachiaria decumbens), foxtail, green (green foxtail, Setaria viridis), goosegrass (Eleusine indica), bromegrass, downy (downy bromegrass, Bromus tectorum), nightshade (eastern black nightshade, Solanum ptycanthum), cocklebur (common cocklebur, Xanthium strumarium), cupgrass, woolly (woolly cupgrass, Eriochloa villosa), bermudagrass (Cynodon dactylon), sunflower, (common oilseed sunflower, Helianthus annuus), Russian thistle (Salsola kali), and velvetleaf (Abutilon theophrasti) were planted into a blend of loam soil and sand and treated preemergence with test chemicals formulated in a non-phytotoxic solvent mixture which included a surfactant.
# At the same time, plants selected from these crop and weed species and also chickweed (common chickweed, Stellaria media), canarygrass (littleseed canarygrass, Phalaris minor), and deadnettle (henbit deadnettle, Lamium amplexicaule), were planted in pots containing Redi-Earth® planting medium (Scotts Company, 14111 Scottslawn Road, Marysville, Ohio 43041) comprising spaghnum peat moss, vermiculite, wetting agent and starter nutrients and treated with postemergence applications of test chemicals formulated in the same manner. Plants ranged in height from 2 to 18 cm (1- to 4-leaf stage) for postemergence treatments. Treated plants and controls were maintained in a greenhouse for 13 to 15 days, after which time all species were compared to controls and visually evaluated. Plant response ratings, summarized in Table C, are based on a scale of 0 to 100 where 0 is no effect and 100 is complete control. A dash (-) response means no test result.
# ducksalad [1] = assay: Test B flood; assay type: in vivo, Heteranthera limosa; details: 250 g ai/ha, visual rating on 0 to 100 scale (0 no effect, 100 complete control), 13 to 15 days
# Procedure, shortened: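 Visual ratings (0 = no effect, 100 = complete control) versus untreated controls were taken 13–15 days after treatment of greenhouse plants. Treatment was added to paddy water held at 3 cm depth on 2-leaf-stage seedlings.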
# ducksalad [2] = assay: Test C flooded paddy test; assay type: in vivo, Heteranthera limosa; details: Flood
# Procedure, shortened: (§1)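 Greenhouse pots flooded to 3 cm above soil at time of treatment received compound via the water, which stayed at that level.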
# rice = assay: Test C flooded paddy test; assay type: in vivo, Oryza sativa; details: Flood
# Procedure, shortened: as §1
# sedge, umbrella = assay: Test C flooded paddy test; assay type: in vivo, Cyperus difformis; details: Flood
# Procedure, shortened: as §1
# barnyardgrass = assay: Test C flooded paddy test; assay type: in vivo, Echinochloa crus-galli; details: Flood
# Procedure, shortened: as §1
# [3] = 250 g ai/ha, scale 0 to 100 (0 no effect, 100 complete control)
# [4] = 125 g ai/ha, scale 0 to 100, 0 no effect, 100 complete control
# [5] = 62 g ai/ha, scale 0 to 100, 0 no effect, 100 complete control
# [6] = 31 g ai/ha, scale 0 to 100 (0 no effect, 100 complete control)
# [7] = 62 g ai/ha, scale 0 to 100 (0 no effect, 100 complete control)
# [8] = 125 g ai/ha, scale 0 to 100 (0 no effect, 100 complete control)
Structure (SMILES),"Plant response rating, Ryegrass, Italian (ryegrass, Italian; [3])","Plant response rating, Ryegrass, Italian (ryegrass, Italian; [4])","Plant response rating, Ducksalad (ducksalad [1])","Plant response rating (scale of 0 to 100 where 0 is no effect and 100 is complete control), Ryegrass, Italian (ryegrass, Italian; Postemergence)","Ryegrass, Italian plant response rating (ryegrass, Italian; 62 g ai/ha)",other results
CCCc1cc(C(=O)NC(C)C)nn1Cc1ccnc(C(F)(F)F)c1 [Compound 186],60,10,80,–,–,–
CCONC(=O)c1cc(CC)n(Cc2ccnc(OC(F)F)c2)n1 [Compound 131],10,10,90,5,5,–
CCOc1cc(C(=O)NCC(F)(F)F)nn1Cc1cc(C(F)(F)F)nn1C [Compound 140],–,–,95,–,–,–
CCc1cc(C(=O)NOC(C)C)nn1Cc1ccnc(OC(F)F)c1 [Compound 126],15,10,95,5,5,–
"CCc1cc(C(=O)NCC(F)(F)F)nn1Cc1cc(C(F)(F)F)nn1C [Compound 108, 5-ethyl-1-[[1-methyl-3-(trifluoromethyl)-1H-pyrazole-5-yl]methyl]-N-(2,2,2-trifluoroethyl)-1H-pyrazole-3-carboxamide]",20,5,60,0,5,–
CCCNC(=O)c1cc(CC)n(Cc2cccc(OC(F)(F)F)c2)n1 [Compound 27],15,10,–,–,–,"Plant response rating, Ryegrass, Italian (ryegrass, Italian; [5]): 5"
O=C(NCC(F)(F)F)c1cc(CCF)n(Cc2ccnc(C(F)(F)F)c2)n1 [Compound 175],–,–,100,–,–,–
CCONC(=O)c1cc(CC)n(Cc2cccc(OC(F)(F)F)c2)n1 [Compound 72],40,15,–,–,10,"Plant response rating, Ducksalad (ducksalad [2]; [6]): 0; Plant response rating, Ducksalad (ducksalad [2]; [7]): 70; Plant response rating, Ducksalad (ducksalad [2]; 125 g ai/ha, scale 0 to 100): 75; Plant response rating, Ducksalad (ducksalad [2]; 250 g ai/ha, scale 0 to 100): 75; Plant response rating, Rice (rice; [6]): 0; Plant response rating, Rice (rice; [7]): 0; Plant response rating, Rice (rice; 125 g ai/ha, scale 0 to 100): 0; Plant response rating, Rice (rice; 250 g ai/ha, scale 0 to 100): 30; Plant response rating, Sedge, Umbrella (sedge, umbrella; [6]): 50; Plant response rating, Sedge, Umbrella (sedge, umbrella; [7]): 60; Plant response rating, Sedge, Umbrella (sedge, umbrella; 125 g ai/ha, scale 0 to 100): 65; Plant response rating, Sedge, Umbrella (sedge, umbrella; 250 g ai/ha, scale 0 to 100): 65; Plant response rating, Barnyardgrass (barnyardgrass; [6]): 0; Plant response rating, Barnyardgrass (barnyardgrass; [7]): 20; Plant response rating, Barnyardgrass (barnyardgrass; 125 g ai/ha, scale 0 to 100): 20; Plant response rating, Barnyardgrass (barnyardgrass; 250 g ai/ha, scale 0 to 100): 20"
CCCNC(=O)c1cc(OCC)n(Cc2ccnc(OC(F)F)c2)n1 [Compound 136],30,5,80,5,5,–
CCc1cc(C(=O)NCC(F)(F)F)nn1Cc1nc(C(F)(F)F)nn1C [Compound 107],5,5,70,0,5,–
CCNC(=O)c1cc(CC)n(Cc2cc(C(F)(F)F)nn2C)n1 [Compound 154],5,0,90,–,–,–
CCc1cc(C(=O)NCC(F)(F)F)nn1Cc1cccc(OC(F)(F)F)c1 [Compound 20],25,15,–,–,–,"Plant response rating, Ryegrass, Italian (ryegrass, Italian; [5]): 10"
CCCNC(=O)c1cc(CC)n(Cc2ccnc(C(F)(F)F)c2)n1 [Compound 75],–,10,85,–,5,"Plant response rating (scale of 0 to 100), Ryegrass, Italian (ryegrass, Italian; Postemergence, 16 g ai/ha): 5"
CCc1cc(-c2ccc(C(F)(F)F)cc2)nn1Cc1ccnc(C(F)(F)F)c1 [Compound 110],40,35,80,20,20,–
CCc1cc(C(=O)NCC(F)(F)F)nn1Cc1ccnc(Br)c1 [Compound 224],5,5,75,–,–,–
CCNC(=O)c1cc(CCF)n(Cc2ccnc(C(F)(F)F)c2)n1 [Compound 178],–,–,95,–,–,"Plant response rating, Ducksalad (ducksalad [2]; [6]): 0; Plant response rating, Ducksalad (ducksalad [2]; [7]): 30; Plant response rating, Ducksalad (ducksalad [2]; [8]): 60; Plant response rating, Ducksalad (ducksalad [2]; 250 g ai/ha, scale 0 to 100): 90; Plant response rating, Rice (rice; [6]): 0; Plant response rating, Rice (rice; [7]): 0; Plant response rating, Rice (rice; [8]): 0; Plant response rating, Rice (rice; 250 g ai/ha, scale 0 to 100): 20; Plant response rating, Sedge, Umbrella (sedge, umbrella; [6]): 0; Plant response rating, Sedge, Umbrella (sedge, umbrella; [7]): 0; Plant response rating, Sedge, Umbrella (sedge, umbrella; [8]): 40; Plant response rating, Sedge, Umbrella (sedge, umbrella; 250 g ai/ha, scale 0 to 100): 80; Plant response rating, Barnyardgrass (barnyardgrass; [6]): 0; Plant response rating, Barnyardgrass (barnyardgrass; [7]): 0; Plant response rating, Barnyardgrass (barnyardgrass; [8]): 0; Plant response rating, Barnyardgrass (barnyardgrass; 250 g ai/ha, scale 0 to 100): 20"
O=C(NC1CC1)c1cc(CCCl)n(Cc2ccnc(C(F)(F)F)c2)n1 [Compound 144],5,5,95,5,–,–
CCc1cc(C(=O)NC2CC2)nn1Cc1ccnc(Br)c1 [Compound 220],5,5,65,–,–,–
CCOc1cc(C(=O)NOC(C)C)nn1Cc1ccnc(C(F)(F)F)c1 [Compound 153],5,5,90,–,–,–
CCCNC(=O)c1cc(OCC)n(Cc2ccnc(C(F)(F)F)c2)n1 [Compound 187],30,5,90,–,–,–
